Assay results from ChEMBL document CHEMBL1201862, “PubChem BioAssay data set” (2004).
Values belong to the molecule of their own block, whether it stands above or below them. The source made the active and inactive calls.

Tests used:
[1] = biological target: ATP-dependent molecular chaperone HSP82 (Candida albicans (strain WO-1) (Yeast), UniProt C4YTQ8); assay: steroid-induced GRE reporter decrease in yeast – S. cerevisiae, luminescence, Hsp90 inhibitor project, dose response (AID 2400); assay type: functional, cell-based;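 further: beta-galactosidase luminescence from glucocorticoid response element reporter as proxy for Hsp90 function; inhibitor potency where signal loss means Hsp90 inhibition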
[2] = biological target: T1, Serine/threonine-protein phosphatase (Candida dubliniensis (strain CD36 / CBS 7987 / NCPF 3949 / NRRLY-17841) (Yeast), UniProt B9W6M3); assay: blockers of CaCl2-induced CDRE-lacZ signaling – S. cerevisiae, luminescence, secondary, dose response (AID 2388); assay type: functional, cell-based;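 further: yeast reporter cells carrying a calcineurin-responsive lacZ construct stimulated with calcium chloride; luminescent beta-galactosidase reporter signal in whole cells rather than isolated phosphatase activity; potency for inhibition where a drop in reporter signal means calcineurin blockade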
T1 sequence (B9W6M3 whole entry): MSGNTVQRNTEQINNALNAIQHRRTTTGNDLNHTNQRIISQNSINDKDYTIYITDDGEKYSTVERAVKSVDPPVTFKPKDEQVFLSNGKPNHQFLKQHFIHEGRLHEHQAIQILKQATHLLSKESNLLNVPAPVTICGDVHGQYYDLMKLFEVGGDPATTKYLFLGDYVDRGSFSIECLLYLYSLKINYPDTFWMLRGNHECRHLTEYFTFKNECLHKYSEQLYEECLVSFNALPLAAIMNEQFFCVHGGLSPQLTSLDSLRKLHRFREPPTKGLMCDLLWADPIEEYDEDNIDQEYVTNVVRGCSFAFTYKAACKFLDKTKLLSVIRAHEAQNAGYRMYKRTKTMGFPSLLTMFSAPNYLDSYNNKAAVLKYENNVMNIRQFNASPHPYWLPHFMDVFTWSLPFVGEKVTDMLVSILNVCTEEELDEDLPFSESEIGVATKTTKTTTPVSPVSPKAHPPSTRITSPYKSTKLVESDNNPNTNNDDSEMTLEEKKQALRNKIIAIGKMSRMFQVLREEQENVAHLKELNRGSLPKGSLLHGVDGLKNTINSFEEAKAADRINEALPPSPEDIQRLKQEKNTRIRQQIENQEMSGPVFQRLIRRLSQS

[3] = biological target: Proto-oncogene tyrosine-protein kinase Src (Homo sapiens, UniProt P12931); assay type: functional;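 further: SRC entry within a kinome-wide kinase profiling panel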
[4] = biological target: Phosphorylase b kinase gamma catalytic chain, liver/testis isoform (Homo sapiens, UniProt P15735); assay type: functional;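 further: PHKG2 measured as one member of a kinome-wide kinase panel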
Phosphorylase b kinase gamma catalytic chain, liver/testis isoform, sequence (P15735 whole entry, canonical isoform): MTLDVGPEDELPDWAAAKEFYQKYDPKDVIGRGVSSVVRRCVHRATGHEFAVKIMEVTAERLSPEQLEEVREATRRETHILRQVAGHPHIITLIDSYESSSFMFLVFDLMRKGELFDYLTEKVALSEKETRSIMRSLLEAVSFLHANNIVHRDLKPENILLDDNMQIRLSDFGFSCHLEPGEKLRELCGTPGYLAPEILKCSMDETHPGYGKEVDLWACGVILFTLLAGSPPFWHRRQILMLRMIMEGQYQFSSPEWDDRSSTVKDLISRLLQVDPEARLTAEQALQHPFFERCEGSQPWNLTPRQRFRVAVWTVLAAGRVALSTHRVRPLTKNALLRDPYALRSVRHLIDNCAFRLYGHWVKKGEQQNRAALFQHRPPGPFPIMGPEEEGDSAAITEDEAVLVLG

[5] = biological target: Receptor tyrosine-protein kinase erbB-2 (Homo sapiens, UniProt P04626); assay: Navigating the Kinome. Panel member name: ERBB2; assay type: functional
[6] = biological target: Serine/threonine-protein kinase PLK4 (Homo sapiens, UniProt O00444); assay type: functional;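 further: PLK4 measured as one member of a kinome-wide kinase profiling panel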
[7] = biological target: Vascular endothelial growth factor receptor 1 (Homo sapiens, UniProt P17948); assay type: functional;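 further: measured within a kinome-wide profiling panel, FLT1 as the panel member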
[8] = biological target: Dual specificity mitogen-activated protein kinase kinase 1 (Homo sapiens, UniProt Q02750); assay: Navigating the Kinome. Panel member name: MAP2K1; assay type: functional
[9] = biological target: Cyclin-dependent kinase 19 (Homo sapiens, UniProt Q9BWU1); assay: Navigating the Kinome. Panel member name: CDC2L6; assay type: functional
[10] = biological target: Dual specificity tyrosine-phosphorylation-regulated kinase 3 (Homo sapiens, UniProt O43781); assay type: functional;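 further: measured as one member of a broad kinase panel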
[11] = biological target: Tyrosine-protein kinase Lyn (Homo sapiens, UniProt P07948); assay type: functional;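 further: lyn as one member of a kinase panel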
[12] = biological target: Protein kinase C gamma type (Homo sapiens, UniProt P05129); assay type: functional
[13] = biological target: Serine/threonine-protein kinase pim-3 (Homo sapiens, UniProt Q86V86); assay type: functional;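 further: value obtained as one member of a broad kinase panel profiling effort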
Insulin receptor = Insulin receptor (Homo sapiens, UniProt P06213); assay type: functional;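 further: insulin receptor kinase tested as one member of a kinome-wide kinase panel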
[14] = biological target: Calcium/calmodulin-dependent protein kinase type II subunit alpha (Homo sapiens, UniProt Q9UQM7); assay: Navigating the Kinome. Panel member name: CAMK2A; assay type: functional
[15] = biological target: Serine/threonine-protein kinase MRCK alpha (Homo sapiens, UniProt Q5VT25); assay type: functional
Serine/threonine-protein kinase MRCK alpha, sequence (Q5VT25 whole entry): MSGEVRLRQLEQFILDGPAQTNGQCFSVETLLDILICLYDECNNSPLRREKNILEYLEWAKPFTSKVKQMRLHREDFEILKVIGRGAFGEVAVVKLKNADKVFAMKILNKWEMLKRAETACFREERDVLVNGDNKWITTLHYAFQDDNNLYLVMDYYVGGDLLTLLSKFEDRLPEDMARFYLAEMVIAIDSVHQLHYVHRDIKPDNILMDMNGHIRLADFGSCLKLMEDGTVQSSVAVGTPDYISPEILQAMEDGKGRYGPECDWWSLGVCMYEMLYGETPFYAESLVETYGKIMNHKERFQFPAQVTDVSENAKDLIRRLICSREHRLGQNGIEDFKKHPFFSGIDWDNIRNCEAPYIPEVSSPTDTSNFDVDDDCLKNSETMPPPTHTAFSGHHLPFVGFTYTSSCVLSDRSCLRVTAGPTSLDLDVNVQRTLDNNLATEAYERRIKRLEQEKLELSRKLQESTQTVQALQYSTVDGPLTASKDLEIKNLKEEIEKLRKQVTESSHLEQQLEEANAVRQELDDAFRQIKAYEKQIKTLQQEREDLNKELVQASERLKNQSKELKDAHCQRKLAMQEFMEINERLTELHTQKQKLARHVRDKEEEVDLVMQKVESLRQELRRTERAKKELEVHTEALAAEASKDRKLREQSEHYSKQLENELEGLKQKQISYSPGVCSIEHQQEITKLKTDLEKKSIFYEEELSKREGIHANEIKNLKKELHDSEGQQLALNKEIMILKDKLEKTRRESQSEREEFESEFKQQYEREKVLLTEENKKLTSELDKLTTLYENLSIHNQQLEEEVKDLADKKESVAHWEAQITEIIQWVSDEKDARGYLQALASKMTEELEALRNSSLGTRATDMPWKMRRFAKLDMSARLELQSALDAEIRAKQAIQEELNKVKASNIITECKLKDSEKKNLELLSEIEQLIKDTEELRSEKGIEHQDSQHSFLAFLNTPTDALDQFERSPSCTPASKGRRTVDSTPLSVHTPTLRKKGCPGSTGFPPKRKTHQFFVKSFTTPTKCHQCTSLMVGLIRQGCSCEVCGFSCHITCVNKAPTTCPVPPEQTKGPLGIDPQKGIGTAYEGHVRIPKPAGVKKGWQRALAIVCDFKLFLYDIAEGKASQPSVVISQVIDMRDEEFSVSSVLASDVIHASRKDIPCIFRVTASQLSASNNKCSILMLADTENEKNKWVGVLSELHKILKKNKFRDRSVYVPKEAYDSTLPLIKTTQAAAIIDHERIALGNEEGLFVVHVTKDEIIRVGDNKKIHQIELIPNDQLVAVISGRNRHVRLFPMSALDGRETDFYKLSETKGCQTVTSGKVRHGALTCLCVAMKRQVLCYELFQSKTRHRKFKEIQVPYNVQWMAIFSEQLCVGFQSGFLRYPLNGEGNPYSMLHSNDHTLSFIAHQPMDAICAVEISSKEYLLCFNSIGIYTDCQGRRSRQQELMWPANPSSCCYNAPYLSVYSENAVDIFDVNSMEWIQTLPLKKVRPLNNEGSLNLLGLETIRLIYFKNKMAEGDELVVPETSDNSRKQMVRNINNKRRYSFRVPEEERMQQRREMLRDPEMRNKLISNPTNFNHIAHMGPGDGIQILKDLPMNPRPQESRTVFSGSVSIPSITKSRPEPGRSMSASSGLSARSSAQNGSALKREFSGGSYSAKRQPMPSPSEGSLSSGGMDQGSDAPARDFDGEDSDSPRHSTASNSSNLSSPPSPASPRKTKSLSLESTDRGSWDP

Focal adhesion kinase 1 = Focal adhesion kinase 1 (Homo sapiens, UniProt Q05397); assay type: functional;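 further: measured as one member of a kinome panel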
[16] = biological target: MAP kinase-activated protein kinase 5 (Homo sapiens, UniProt Q8IW41); assay type: functional;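 further: measured as one member of a kinome panel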
[17] = biological target: MAP/microtubule affinity-regulating kinase 3 (Homo sapiens, UniProt P27448); assay type: functional;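 further: MARK3 affinity measured as one member of a kinome panel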
[18] = biological target: Mitogen-activated protein kinase 8 (Homo sapiens, UniProt P45983); assay type: functional;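 further: value comes from one member of a kinome-wide kinase profiling panel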
[19] = biological target: Cyclin-dependent kinase 5 (Homo sapiens, UniProt Q00535); assay type: functional;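 further: CDK5 measured as one member of a kinase profiling panel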
[20] = biological target: Tyrosine-protein kinase JAK2 (Homo sapiens, UniProt O60674); assay type: functional;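 further: JAK2 tested as one member of a kinase panel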
[21] = biological target: Dual specificity protein kinase CLK2 (Homo sapiens, UniProt P49760); assay type: functional
Dual specificity protein kinase CLK2, sequence (P49760 whole entry): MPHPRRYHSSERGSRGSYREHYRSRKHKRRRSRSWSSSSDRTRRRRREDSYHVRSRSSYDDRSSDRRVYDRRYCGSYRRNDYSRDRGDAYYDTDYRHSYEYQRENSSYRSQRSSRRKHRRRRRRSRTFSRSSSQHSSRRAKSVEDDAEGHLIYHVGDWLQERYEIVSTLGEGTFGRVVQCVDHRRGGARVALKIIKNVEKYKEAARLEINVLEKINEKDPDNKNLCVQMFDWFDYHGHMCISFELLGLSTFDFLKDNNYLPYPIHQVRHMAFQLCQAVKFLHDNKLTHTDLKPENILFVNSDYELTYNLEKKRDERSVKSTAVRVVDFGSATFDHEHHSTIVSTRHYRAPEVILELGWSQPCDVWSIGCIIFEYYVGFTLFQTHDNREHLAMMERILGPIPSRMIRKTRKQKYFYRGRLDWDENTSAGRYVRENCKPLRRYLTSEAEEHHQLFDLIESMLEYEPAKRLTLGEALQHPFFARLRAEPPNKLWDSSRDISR

[22] = biological target: 5'-AMP-activated protein kinase catalytic subunit alpha-1 (Homo sapiens, UniProt Q13131); assay type: functional
5'-AMP-activated protein kinase catalytic subunit alpha-1, sequence (Q13131 whole entry): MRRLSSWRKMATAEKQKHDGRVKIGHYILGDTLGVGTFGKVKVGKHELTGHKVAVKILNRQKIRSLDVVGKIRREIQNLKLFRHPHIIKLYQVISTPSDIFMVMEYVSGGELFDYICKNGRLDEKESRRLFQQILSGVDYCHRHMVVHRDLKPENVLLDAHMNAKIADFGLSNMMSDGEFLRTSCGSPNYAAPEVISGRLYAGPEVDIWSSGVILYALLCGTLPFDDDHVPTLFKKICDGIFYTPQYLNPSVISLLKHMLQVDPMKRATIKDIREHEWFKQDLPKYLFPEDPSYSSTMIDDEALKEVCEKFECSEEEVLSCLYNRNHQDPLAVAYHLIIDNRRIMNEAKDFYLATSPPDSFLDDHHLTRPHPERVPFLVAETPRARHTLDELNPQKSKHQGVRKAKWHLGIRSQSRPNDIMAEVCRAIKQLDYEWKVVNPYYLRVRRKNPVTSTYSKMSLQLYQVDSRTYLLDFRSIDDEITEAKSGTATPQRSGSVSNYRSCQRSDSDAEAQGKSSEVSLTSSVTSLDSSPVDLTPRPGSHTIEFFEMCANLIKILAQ

[23] = biological target: cAMP-dependent protein kinase catalytic subunit PRKX (Homo sapiens, UniProt P51817); assay type: functional
[24] = biological target: Protein-tyrosine kinase 2-beta (Homo sapiens, UniProt Q14289); assay type: functional
[25] = biological target: Mitogen-activated protein kinase 9 (Homo sapiens, UniProt P45984); assay type: functional;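 further: value from a kinome panel profiling assay, MAPK9 panel entry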
[26] = biological target: G protein-coupled receptor kinase 5 (Homo sapiens, UniProt P34947); assay: Navigating the Kinome. Panel member name: GPRK5; assay type: functional
G protein-coupled receptor kinase 5, sequence (P34947 whole entry): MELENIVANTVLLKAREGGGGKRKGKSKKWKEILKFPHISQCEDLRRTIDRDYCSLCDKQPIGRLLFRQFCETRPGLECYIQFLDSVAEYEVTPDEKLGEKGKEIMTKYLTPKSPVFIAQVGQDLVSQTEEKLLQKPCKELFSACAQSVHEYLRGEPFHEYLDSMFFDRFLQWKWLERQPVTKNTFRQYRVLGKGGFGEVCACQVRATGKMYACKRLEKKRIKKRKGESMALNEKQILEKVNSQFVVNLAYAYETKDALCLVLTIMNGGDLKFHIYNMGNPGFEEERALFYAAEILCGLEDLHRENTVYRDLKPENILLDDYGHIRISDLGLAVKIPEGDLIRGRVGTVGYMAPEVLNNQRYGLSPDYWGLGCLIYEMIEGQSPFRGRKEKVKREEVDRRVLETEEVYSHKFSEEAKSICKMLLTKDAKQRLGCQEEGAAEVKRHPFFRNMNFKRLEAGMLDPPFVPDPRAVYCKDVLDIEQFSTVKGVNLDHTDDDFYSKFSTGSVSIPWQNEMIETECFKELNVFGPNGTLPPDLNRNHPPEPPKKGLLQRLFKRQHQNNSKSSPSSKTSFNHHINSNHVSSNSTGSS

[27] = biological target: Cyclin-dependent kinase 9 (Homo sapiens, UniProt P50750); assay type: functional;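 further: value from the CDK9 entry of a kinome-spanning kinase panel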
[28] = biological target: Serine/threonine-protein kinase PLK1 (Homo sapiens, UniProt P53350); assay type: functional;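 further: PLK1 measured as one member of a kinome-wide profiling panel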
[29] = biological target: Dual specificity mitogen-activated protein kinase kinase 2 (Homo sapiens, UniProt P36507); assay: Navigating the Kinome. Panel member name: MAP2K2; assay type: functional
Dual specificity mitogen-activated protein kinase kinase 2, sequence (P36507 whole entry, canonical isoform): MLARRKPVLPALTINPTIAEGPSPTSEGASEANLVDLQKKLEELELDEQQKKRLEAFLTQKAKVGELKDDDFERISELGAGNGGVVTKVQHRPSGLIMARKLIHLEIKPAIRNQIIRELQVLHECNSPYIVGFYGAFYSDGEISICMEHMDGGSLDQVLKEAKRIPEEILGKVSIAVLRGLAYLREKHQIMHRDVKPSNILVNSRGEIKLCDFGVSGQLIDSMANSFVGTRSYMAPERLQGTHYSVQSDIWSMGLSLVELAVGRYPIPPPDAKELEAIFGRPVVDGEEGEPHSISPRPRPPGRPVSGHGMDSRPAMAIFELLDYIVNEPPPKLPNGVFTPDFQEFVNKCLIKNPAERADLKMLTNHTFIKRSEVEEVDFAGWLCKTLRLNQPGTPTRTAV

[30] = biological target: Casein kinase I isoform gamma-1 (Homo sapiens, UniProt Q9HCP0); assay type: functional;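 further: measured as the CSNK1G1 member of a kinome profiling panel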
[31] = biological target: Proto-oncogene tyrosine-protein kinase ROS (Homo sapiens, UniProt P08922); assay type: functional;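 further: ROS1 tested as one member of a kinome-wide kinase panel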
[32] = biological target: Cyclin-dependent kinase 1 (Homo sapiens, UniProt P06493); assay type: functional;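 further: Kinome-wide panel profiling, with the target listed as panel member CDC2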
Cyclin-dependent kinase 1, sequence (P06493 whole entry): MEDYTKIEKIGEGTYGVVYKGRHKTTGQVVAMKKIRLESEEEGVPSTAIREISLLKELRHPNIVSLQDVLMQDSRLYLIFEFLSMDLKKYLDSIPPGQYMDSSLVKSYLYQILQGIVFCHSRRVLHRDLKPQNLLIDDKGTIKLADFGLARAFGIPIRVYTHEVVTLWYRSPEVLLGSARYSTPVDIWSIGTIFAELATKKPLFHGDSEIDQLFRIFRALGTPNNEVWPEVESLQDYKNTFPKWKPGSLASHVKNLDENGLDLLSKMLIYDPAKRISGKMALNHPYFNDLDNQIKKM

[33] = biological target: Macrophage colony-stimulating factor 1 receptor (Homo sapiens, UniProt P07333); assay type: functional;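 further: value comes from the Navigating the Kinome screening panel, CSF1R member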
[34] = biological target: Serine/threonine-protein kinase Chk2 (Homo sapiens, UniProt O96017); assay type: functional;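 further: CHEK2 entry within a kinome-wide screening panel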

SMILES: CCCn1nc([N+](=O)[O-])c(C(C#N)c2nc3ccccc3s2)c(Cl)c1=O (stereo unspecified)
EC50 [1]: 10700 nM (active)
EC50 [2]: > 180000 nM (inactive)

Ki [3]: > 2000 nM (inactive)
Ki [4]: 126 nM (active)
Ki [5]: > 1580 nM (inactive)
Ki [6]: 63.1 nM (active)
Ki [7]: > 2510 nM (inactive)
Ki [8]: > 3160 nM (inactive)
Ki [9]: 398 nM (active)
Ki [10]: 100 nM (active)
Ki [11]: > 1580 nM (inactive)
Ki [12]: 200 nM (active)
Ki [13]: 31.6 nM (active)
Ki (Insulin receptor): > 5010 nM (inactive)
Ki [14]: > 5010 nM (inactive)
Ki [15]: 631 nM (active)
Ki (Focal adhesion kinase 1): > 5010 nM (inactive)
Ki [16]: 200 nM (active)
Ki [17]: 63.1 nM (active)
Ki [18]: > 2510 nM (inactive)
Ki [19]: 1580 nM (active)
Ki [20]: > 2000 nM (inactive)
Ki [21]: > 2510 nM (inactive)
Ki [22]: 794 nM (active)
Ki [23]: 3.16 nM (active)
Ki [24]: 251 nM (active)
Ki [25]: > 2000 nM (inactive)
Ki [26]: > 3980 nM (inactive)
Ki [27]: > 1580 nM (inactive)
Ki [28]: > 7940 nM (inactive)
Ki [29]: > 3980 nM (inactive)
Ki [30]: 2510 nM (active)
Ki [31]: 200 nM (active)
Ki [32]: 31.6 nM (active)
Ki [33]: > 2510 nM (inactive)
Ki [34]: 20 nM (active)
SMILES: NCCCn1cc(-c2cc(-c3cc4ccccc4s3)c3[nH]ncc3c2)c2nc(N)ncc21
